From ChEMBL document CHEMBL5244269, “Improving metabolic stability and removing aldehyde oxidase liability in a 5-azaquinazoline series of IRAK4 inhibitors” (Bioorg Med Chem, 2020)

Tests used:
[1] = biological target: T1, Interleukin-1 receptor-associated kinase 4 (Homo sapiens, UniProt Q9NWZ3); assay: Inhibition of IRAK4 (unknown origin) in presence of ATP by enzymatic assay
T1 sequence (Q9NWZ3 whole entry): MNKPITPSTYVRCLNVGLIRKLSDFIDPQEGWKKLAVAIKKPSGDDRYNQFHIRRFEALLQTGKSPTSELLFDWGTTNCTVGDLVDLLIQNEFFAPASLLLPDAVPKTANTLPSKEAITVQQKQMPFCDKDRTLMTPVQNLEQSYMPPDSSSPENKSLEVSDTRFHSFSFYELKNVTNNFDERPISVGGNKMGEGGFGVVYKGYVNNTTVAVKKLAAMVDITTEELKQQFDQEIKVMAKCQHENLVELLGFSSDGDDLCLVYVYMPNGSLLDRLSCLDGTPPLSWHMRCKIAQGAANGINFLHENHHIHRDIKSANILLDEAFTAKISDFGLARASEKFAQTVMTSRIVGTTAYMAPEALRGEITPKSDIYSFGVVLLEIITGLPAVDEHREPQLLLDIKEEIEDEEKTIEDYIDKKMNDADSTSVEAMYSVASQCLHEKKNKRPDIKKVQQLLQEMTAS

[2] = biological target: T1, Interleukin-1 receptor-associated kinase 4; assay: Inhibition of IRAK4 (unknown origin) phosphorylation by cell based assay
[3] = Lipophilicity, LogD at pH 7.4 of the compound by shake flask method; type: physicochemical; details: buffer
[4] = Metabolic stability in human liver microsomes assessed as intrinsic clearance; type: ADME, Microsome; details: read-out: CLH
[5] = Metabolic stability in human hepatocytes assessed as intrinsic clearance measured per 10^6 cells; type: ADME, cell-based, Hepatocyte; details: read-out: CLH
[6] = biological target: T2, Receptor-type tyrosine-protein kinase FLT3 (Homo sapiens, UniProt P36888); assay: Inhibition of FLT3 (unknown origin) in presence of 600 uM ATP
T2 sequence (P36888 whole entry): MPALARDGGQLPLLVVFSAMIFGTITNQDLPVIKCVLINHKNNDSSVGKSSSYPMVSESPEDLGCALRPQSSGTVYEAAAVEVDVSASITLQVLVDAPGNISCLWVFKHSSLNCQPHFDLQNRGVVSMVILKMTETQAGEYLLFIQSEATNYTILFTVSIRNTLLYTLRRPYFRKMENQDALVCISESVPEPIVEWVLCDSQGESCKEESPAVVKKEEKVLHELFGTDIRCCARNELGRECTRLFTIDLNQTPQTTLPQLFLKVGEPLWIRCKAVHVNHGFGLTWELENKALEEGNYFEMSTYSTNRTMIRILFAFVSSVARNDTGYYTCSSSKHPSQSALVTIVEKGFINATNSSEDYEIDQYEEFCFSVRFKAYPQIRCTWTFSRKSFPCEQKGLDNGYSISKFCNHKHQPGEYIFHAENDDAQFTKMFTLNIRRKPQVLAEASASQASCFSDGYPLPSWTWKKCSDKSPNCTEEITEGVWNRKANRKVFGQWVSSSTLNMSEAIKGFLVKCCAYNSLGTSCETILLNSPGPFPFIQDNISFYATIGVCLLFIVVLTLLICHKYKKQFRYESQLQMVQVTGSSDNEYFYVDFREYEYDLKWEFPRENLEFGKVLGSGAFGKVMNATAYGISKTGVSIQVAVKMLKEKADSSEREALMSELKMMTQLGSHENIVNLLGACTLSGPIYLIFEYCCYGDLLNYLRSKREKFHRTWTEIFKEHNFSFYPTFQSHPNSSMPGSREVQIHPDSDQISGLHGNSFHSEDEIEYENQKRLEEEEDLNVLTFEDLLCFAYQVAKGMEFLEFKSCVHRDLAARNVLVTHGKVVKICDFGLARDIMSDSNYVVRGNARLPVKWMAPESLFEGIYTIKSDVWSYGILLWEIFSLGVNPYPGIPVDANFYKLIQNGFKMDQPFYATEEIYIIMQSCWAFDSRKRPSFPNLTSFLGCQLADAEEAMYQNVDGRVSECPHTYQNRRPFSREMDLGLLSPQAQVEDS

Homo sapiens = species on record: Homo sapiens; assay: Selectivity index, ratio of IC50 for inhibition of FLT3 (unknown origin) to IC50 for inhibition of IRAK4 (unknown origin)
[7] = Metabolic stability in human cytosol assessed as intrinsic clearance; type: ADME, subcellular
[8] = Apparent permeability across apical to basolateral side in human Caco-2 cells measured for 360 mins by liquid scintillation counting based analysis; type: ADME, cell-based
[9] = Efflux ratio of apparent permeability basolateral to apical side over apical to basolateral side in human Caco-2 cells measured for 360 mins by liquid scintillation counting based analysis; type: ADME, cell-based
[10] = Clearance in human; type: ADME
[11] = Clearance in human assessed as liver blood flow; type: ADME, tissue-based
[12] = biological target: High affinity nerve growth factor receptor (Homo sapiens, UniProt P04629); assay: Inhibition of TRKA (unknown origin) in presence of 400 uM ATP
Chain of High affinity nerve growth factor receptor (P04629 whole entry): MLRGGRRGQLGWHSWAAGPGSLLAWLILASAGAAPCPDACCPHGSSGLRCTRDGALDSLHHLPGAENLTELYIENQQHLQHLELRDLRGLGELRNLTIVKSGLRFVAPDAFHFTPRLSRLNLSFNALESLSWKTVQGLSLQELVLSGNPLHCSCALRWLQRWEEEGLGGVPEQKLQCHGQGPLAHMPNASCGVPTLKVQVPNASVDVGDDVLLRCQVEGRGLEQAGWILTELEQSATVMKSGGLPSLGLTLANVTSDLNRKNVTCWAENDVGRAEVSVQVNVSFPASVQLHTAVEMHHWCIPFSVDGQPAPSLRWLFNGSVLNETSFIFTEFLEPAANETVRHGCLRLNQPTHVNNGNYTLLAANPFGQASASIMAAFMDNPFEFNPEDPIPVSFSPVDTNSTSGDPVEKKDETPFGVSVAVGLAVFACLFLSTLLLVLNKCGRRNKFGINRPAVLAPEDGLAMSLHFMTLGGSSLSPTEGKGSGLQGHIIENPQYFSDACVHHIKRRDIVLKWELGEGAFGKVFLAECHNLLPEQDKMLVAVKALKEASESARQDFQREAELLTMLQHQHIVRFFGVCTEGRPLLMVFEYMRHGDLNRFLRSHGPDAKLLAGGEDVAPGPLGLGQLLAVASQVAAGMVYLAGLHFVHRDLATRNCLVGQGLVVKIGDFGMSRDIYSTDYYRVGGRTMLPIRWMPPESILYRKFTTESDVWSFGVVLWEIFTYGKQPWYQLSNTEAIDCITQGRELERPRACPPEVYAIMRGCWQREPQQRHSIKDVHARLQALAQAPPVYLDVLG

| SMILES | IC50 [1] [nM] | IC50 [2] [nM] | logD [3] | microsomal CLint [4] [µL/min/mg] | hepatocyte CLint [5] [µL/min/1e6 cells] | IC50 [6] [nM] | Ratio IC50 (Homo sapiens) | microsomal CLint [7] [µL/min/mg] | Papp A→B at 6 h [8] [×10⁻⁶ cm/s] | efflux ratio at 6 h [9] | clearance [10] [mL/min/kg] | LBF [11] [%] | IC50 [12] [nM] |
| --- | --- | --- | --- | --- | --- | --- | --- | --- | --- | --- | --- | --- | --- |
| Cc1ncncc1-c1nc2c(OC3(C)CC3)nc(Nc3cnn(C4CCN(C)CC4)c3)nc2cc1F | 15 | 480 | 2.2 | 53 | 5.5 | – | – | < 0.5 | – | – | – | – | – |
| CN1CCC(n2cc(Nc3nc(OC4(C)CC4)c4nc(-c5cn(C)nn5)ccc4n3)cn2)CC1 | 19 | 510 | 1.8 | 13 | < 1 | – | – | – | – | – | – | – | – |
| Cn1cc(Nc2nc(NC3CC3)c3nc(CC#N)ccc3n2)cn1 | 22 | 490 | 2.1 | – | – | – | – | – | – | – | – | – | – |
| CN1CCC(n2cc(Nc3nc(OC4(C)CC4)c4nc(C(=O)N(C)C)ccc4n3)cn2)CC1 | 13 | 670 | 1.2 | < 4.5 | 1.7 | – | – | – | 1.5 | 17 | – | – | – |
| Cn1cc(Nc2nc(NC3CCOCC3)c3nc(CC#N)ccc3n2)cn1 | 139 | 2100 | 1.7 | – | – | – | – | – | – | – | – | – | – |
| COC(=O)N1CCN([C@H]2CC[C@H](Nc3nc(Nc4cnn(C)c4)nc4ccc(CC#N)nc34)CC2)CC1 | 3 | 170 | – | – | – | – | – | – | 9.3 | 24 | 13 | 70 | – |
| CN1CCC(n2cc(Nc3nc(OC4(C)CC4)c4nc(-c5cn(C)cn5)ccc4n3)cn2)CC1 | 730 | 6800 | 1.8 | 14 | – | – | – | – | – | – | – | – | – |
| Cc1ncc(-c2ccc3nc(Nc4cnn(C5CCN(C)CC5)c4)nc(OC4(C)CC4)c3n2)c(C)n1 | 7 | 260 | 2.1 | 23 | 3.4 | – | – | 2.2 | – | – | – | – | – |
| CC(=O)N1CCC(n2cc(Nc3nc(NC4CCOCC4)c4nc(CC#N)ccc4n3)cn2)CC1 | 12 | 670 | 1.4 | 26 | – | – | – | – | 4.1 | 86 | – | – | – |
| CC(C)Nc1nc(Nc2cnn(C)c2)nc2ccc(CC#N)nc12 | 51 | 570 | 2.4 | – | – | – | – | – | – | – | – | – | – |
| Cc1ncc(-c2nc3c(OC4(C)CC4)nc(Nc4cnn([C@@H]5C[C@@H]6C[C@H]5CN6C)c4)nc3cc2F)cn1 | 4 | 310 | 1.7 | 15 | < 1 | – | – | – | – | – | – | – | – |
| CN1CCC(n2cc(Nc3nc(OC4(C)CC4)c4nc(-c5ccn(C)n5)ccc4n3)cn2)CC1 | 490 | 21000 | 2.1 | 18 | – | – | – | – | – | – | – | – | – |
| Cc1ncc(-c2nc3c(OC4(C)CC4)nc(Nc4cnn([C@@H]5C[C@H]6C[C@@H]5CN6C)c4)nc3cc2F)cn1 | 32 | 1100 | 1.5 | 14 | – | – | – | – | – | – | – | – | – |
| Cn1cc(Nc2nc(NC3COC3)c3nc(CC#N)ccc3n2)cn1 | 447 | 9400 | 1.2 | – | – | – | – | – | – | – | – | – | – |
| N#CCc1ccc2nc(Nc3cnn(C4CCOCC4)c3)nc(NC3CCOCC3)c2n1 | 15 | 570 | 1.9 | 110 | – | – | – | – | – | – | – | – | – |
| CC(=O)N1CCC(n2cc(Nc3nc(OC4CCOCC4)c4nc(CC#N)ccc4n3)cn2)CC1 | 32 | 2000 | 1.2 | 5 | – | – | – | – | – | – | – | – | – |
| Cn1cc(Nc2nc(N[C@H]3CCOC3)c3nc(CC#N)ccc3n2)cn1 | 113 | 2600 | 1.6 | – | – | – | – | – | – | – | – | – | – |
| Cc1ncncc1-c1ccc2nc(Nc3cnn(C4CCN(C)CC4)c3)nc(OC3(C)CC3)c2n1 | 5 | 170 | 1.9 | 44 | 4.7 | – | – | 4.8 | – | – | – | – | – |
| Cn1cc(Nc2nc(N[C@@H]3CCOC3)c3nc(CC#N)ccc3n2)cn1 | 211 | 3500 | 1.5 | – | – | – | – | – | – | – | – | – | – |

Further molecules by falling IC50 [1], results first:

| IC50 [1] [nM] | IC50 [2] [nM] | logD [3] | microsomal CLint [4] [µL/min/mg] | hepatocyte CLint [5] [µL/min/1e6 cells] | IC50 [6] [nM] | Ratio IC50 (Homo sapiens) | microsomal CLint [7] [µL/min/mg] | Papp A→B at 6 h [8] [×10⁻⁶ cm/s] | efflux ratio at 6 h [9] | clearance [10] [mL/min/kg] | LBF [11] [%] | IC50 [12] [nM] | SMILES |
| --- | --- | --- | --- | --- | --- | --- | --- | --- | --- | --- | --- | --- | --- |
| 3 | 210 | 2.2 | 15 | 1.7 | 170 | < 5 | – | – | – | – | – | – | CN1CCC(n2cc(Nc3nc(OC4(C)CC4)c4nc(-c5cnn(C)c5)ccc4n3)cn2)CC1 |
| 3 | 220 | 1.4 | < 3 | < 1 | – | – | – | – | – | – | – | – | Cc1ncc(-c2nc3c(OC4(C)CC4)nc(Nc4cnn(C5CC6(C5)CN(C)C6)c4)nc3cc2F)cn1 |
| 3 | 200 | 2.2 | < 3 | 4 | – | – | – | – | – | – | – | – | Cc1nc2c(OC3(C)CC3)nc(Nc3cnn(C4CC5(C4)CN(C)C5)c3)nc2cc1F |
| 3 | 100 | 1.8 | 18 | 1.9 | 16 | > 30 | < 0.5 | 20 | 2.5 | 5 | 20 | – | Cc1ccc2nc(Nc3cnn(C4CCN(C)CC4)c3)nc(OC3(C)CC3)c2n1 |
| 3 | 71 | 2.3 | 33 | 4.6 | 30 | – | – | 45 | 2.6 | – | – | 20 | CC(=O)N1CCC(n2cc(Nc3nc(OC4CCOCC4)c4nc(C)ccc4n3)cn2)CC1 |
| 3 | 300 | 2.6 | < 3 | < 1 | – | – | – | – | – | – | – | – | CN1CC2(CC(n3cc(Nc4nc(OC5(C)CC5)c5nc(C6CC6)c(F)cc5n4)cn3)C2)C1 |
| 2 | 110 | 2.7 | – | 71 | – | – | – | – | – | – | – | – | Cn1cc(Nc2nc(NC3(C)CC3)c3nc(CC#N)ccc3n2)cn1 |
| 2 | 38 | 2.8 | 37 | 4.6 | – | – | – | – | – | – | – | – | CN1CCC(n2cc(Nc3nc(OC4(C)CC4)c4nc(C5CC5)ccc4n3)cn2)CC1 |
| 1.8 | 140 | 2.2 | 52 | 170 | – | – | 69 | – | – | – | – | – | Cc1ncc(-c2ccc3nc(Nc4cnn(C5CCN(C)CC5)c4)nc(OC4(C)CC4)c3n2)cn1 |
| 1 | 29 | – | 88 | 14 | – | – | 20 | – | – | – | – | – | CN1CCC(n2cc(Nc3nc(OC4(C)CC4)c4nc(-c5cncnc5)c(F)cc4n3)cn2)CC1 |
| 1 | 120 | 2.6 | 130 | – | – | – | – | – | – | – | – | – | CN1CCC(n2cc(Nc3nc(OC4(C)CC4)c4nc(-c5cccnc5)ccc4n3)cn2)CC1 |
| 1 | 130 | 1.7 | 48 | 8.4 | – | – | – | – | – | – | – | – | CN1CCC(n2cc(Nc3nc(OC4(C)CC4)c4nc(-c5ccnnc5)ccc4n3)cn2)CC1 |
| 0.6 | 54 | 2.1 | 11 | < 1 | – | – | – | – | – | – | – | – | Cc1ncc(-c2nc3c(NC4(C)CC4)nc(Nc4cnn(C5CC6(C5)CN(C)C6)c4)nc3cc2F)cn1 |
